Measurements: US11571467B2, “Dodecafluoropentane emulsion as a stroke and ischemia therapy” (The Board of Trustees of the University of Arkansas, priority 2011, dated 2023)
Read-outs that look alike come from different tables or passages of the source.

What was measured:
[1] = Pharmacokinetic study, DDFP blood levels by headspace GC-MS; assay type: in vivo, New Zealand White rabbits
Experimental: Pharmacokinetic study. In alert New Zealand White rabbits (5.1±0.5 kg; N=8), cannulae were placed in a vein of one ear and in an artery of the other ear. After intravenous injection of DDFPe (0.6 ml/kg in a 2% w/v emulsion) arterial blood samples were taken over a period of 4 to 7 h. The dose of DDFPe was repeated every 90 min in four animals. Samples were stored at −20° C. until they were analyzed for DDFP content by a headspace gas chromatograph-mass spectrometer (Varian TSQ).
Because infarct volumes were not normally distributed, ranks of infarct volume were analyzed with PROC GLM of SAS software (Kruskal-Wallis equivalent). Blood levels of DDFP were analyzed for exponential curve fit and exponential decay time constant using KaleidaGraph software v4.01 (2005). Values are given as mean±standard error.

[2] = cited from earlier work
[3] = in the liquid PFC; cited from earlier work

half-life ([1]; New Zealand White, rabbit, arterial whole blood, intravenous, FIG. 15, 0.6 ml/kg of 2% w/v emulsion, read-out: half-life in blood, representative rabbit) [min] | clearance ([1]; New Zealand White, rabbit, arterial whole blood, single DDFPe dose of 0.6 ml/kg IV) [mL/min/kg] | half-life ([1]; New Zealand White, rabbit, arterial whole blood, single DDFPe dose of 0.6 ml/kg IV, N=4, read-out: mean half-life in blood) [min] | time for blood level to return to the baseline level after each dose ([1]; multiple doses at 90 min intervals) | time for blood levels to reach non-detectable levels ([1]; single DDFPe dose of 0.6 ml/kg IV) [min] | accumulation in blood ([1]; up to five doses of 0.6 ml/kg at 90 min intervals) | Structure (SMILES) | half-life in blood ([2]; humans, previous study) [min] | half-life in the blood ([2]; intravenous administration) [min] | DDFP cleared through the lungs / recovered from expired air ([2]; within 2 hours after single intravenous dose) [%] | solubility of oxygen [3] [% v/v]
1.68 | 78.5 ± 24.9 | 1.45 ± 0.17 | less than 30 min | ≤ 30 | no sign of accumulation | FC(F)(F)C(F)(F)C(F)(F)C(F)(F)C(F)(F)F [DDFP, dodecafluoropentane] | 2.2 ± 1.2 | 2 | 99 | 80
 |  |  |  |  |  | FC1(F)C(F)(F)C(F)(F)C2(F)C(F)(F)C(F)(F)C(F)(F)C(F)(F)C2(F)C1(F)F (stereo not drawn) [PFD, perfluorodecalin] |  |  |  | 42
 |  |  |  |  |  | FC(F)(F)C(F)(F)C(F)(F)C(F)(F)C(F)(F)C(F)(F)C(F)(F)C(F)(F)Br [PFOB, perfluorooctylbromide] |  |  |  | 50
